Source: patent publication US8669249B2, “Poly (ADP-ribose) polymerase (PARP) inhibitors” (Takeda Pharmaceutical Company Limited, priority 2009, dated 2014)

Columns and labels:
[1] = molecular target: T1, PARP (Homo sapiens, UniProt P09874); assay: PARP ELISA (ELISA-based colorimetric PARP/Apoptosis Assay kit, Trevigen); type: biochemical; conditions: pIC50=-log10 IC50, IC50 in mol/L; inhibition of PARP catalytic activity
T1 construct: purchased Trevigen 4684-096-K HT (kit); 4684-096-01 (PARP enzyme)
T1 sequence (P09874 whole entry): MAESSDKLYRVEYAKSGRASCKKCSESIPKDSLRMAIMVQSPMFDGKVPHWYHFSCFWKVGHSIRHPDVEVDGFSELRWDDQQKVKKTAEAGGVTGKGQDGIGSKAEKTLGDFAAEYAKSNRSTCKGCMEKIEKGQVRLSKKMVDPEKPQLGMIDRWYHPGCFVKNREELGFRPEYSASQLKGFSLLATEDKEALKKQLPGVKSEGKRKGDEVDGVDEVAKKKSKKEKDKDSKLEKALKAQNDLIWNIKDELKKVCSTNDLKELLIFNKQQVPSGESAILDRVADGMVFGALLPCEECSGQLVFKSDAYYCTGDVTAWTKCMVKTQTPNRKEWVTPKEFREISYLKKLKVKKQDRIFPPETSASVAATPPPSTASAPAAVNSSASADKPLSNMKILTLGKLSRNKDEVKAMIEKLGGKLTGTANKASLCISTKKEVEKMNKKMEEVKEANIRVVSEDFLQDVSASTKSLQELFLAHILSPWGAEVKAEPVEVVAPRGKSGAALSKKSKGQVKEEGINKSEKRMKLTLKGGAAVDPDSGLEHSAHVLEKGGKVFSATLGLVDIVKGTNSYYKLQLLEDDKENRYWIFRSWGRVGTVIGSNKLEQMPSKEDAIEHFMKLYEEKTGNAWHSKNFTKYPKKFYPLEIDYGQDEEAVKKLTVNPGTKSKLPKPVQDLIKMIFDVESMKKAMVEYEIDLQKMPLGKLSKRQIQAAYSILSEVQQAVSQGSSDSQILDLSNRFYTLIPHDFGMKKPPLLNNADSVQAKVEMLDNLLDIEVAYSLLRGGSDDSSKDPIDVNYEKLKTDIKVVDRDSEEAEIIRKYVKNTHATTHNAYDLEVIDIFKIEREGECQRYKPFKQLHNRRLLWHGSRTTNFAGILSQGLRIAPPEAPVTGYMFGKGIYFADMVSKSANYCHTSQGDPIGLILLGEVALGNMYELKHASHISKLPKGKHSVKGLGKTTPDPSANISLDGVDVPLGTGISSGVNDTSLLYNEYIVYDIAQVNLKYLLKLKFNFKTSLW
How it was run: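 Quenched after 10 min catalysis by aspiration and four PBS/0.1% Triton X-100 washes. Poly(ADP-ribose) detected with mouse anti-PAR monoclonal antibody, goat anti-mouse IgG-HRP and HRP substrate; colorimetric signal proportional to PARP catalytic activity.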

[2] = tested on: Jurkat cell line; assay: PARP cellular chemopotentiation assay (MTS, with/without TMZ); type: cell-based; conditions: Chemopotentiation factor: ratio of EC50 values of Jurkat cells co-treated without and with 100 μM TMZ; 96 hours
Protocol: Potentiation Factor (PF50) Determination from PARP Cellular Chemopotentiation Assay
Jurkat cell line was maintained according to the supplier (American Type Culture Collection (Rockville, Md.)). Cells were seeded in 96-well tissue culture microplates at 10,000 cells per well and cultured for 24 hours prior to addition of compounds, TMZ (Temozolomide) or DMSO (dimethylsulfoxide) vehicle. After 96 hours of treatment, the conversion of MTS ([3-(4,5-dimethylthiazol-2-yl)-5-(3-carboxymethoxyphenyl)-2-(4-sulfophenyl)-2H-tetrazolium, inner salt], Promega, Madison, Wis.) by metabolically active cells was determined through measuring the OD490 nm with a Spectramax microplate reader (Molecular Devices, San Diego, Calif.). To generate concentration-response curves, cells were treated in duplicate with a range of serial compound dilutions (final DMSO concentration was 0.5%) in the absence or presence of 100 μM TMZ chemoreagent. The percentage of viable cells per well was calculated by correction for background and normalizing against DMSO-treated cells. EC50 values for inhibition of cell viability were calculated using XLfit4 MicroSoft Excel curve-fitting software. Chemopotentiation factor PF50 was calculated as the ratio of EC50 values of cells co-treated without and with TMZ, respectively.

| SMILES | IC50 [1] | PF50 [2] |
| --- | --- | --- |
| CNC(=O)c1ccc(N2CCN(Cc3cc(F)c4c(c3)NC(=O)C(C)O4)CC2)nc1 (centres unmarked) [Compound 314, 6-(4-((8-Fluoro-2-methyl-3-oxo-3,4-dihydro-2H-benzo[b][1,4]oxazin-6-yl)methyl)piperazin-1-yl)-N-methylnicotinamide] | 31.6 nM | 1.8 |
| Cc1cc2c(cc1CN1CC=C(c3ccc(Cl)cc3)CC1)NC(=O)C(C)O2 (centres unmarked) [Compound 321, 6-((4-(4-Chlorophenyl)-5,6-dihydropyridin-1(2H)-yl)methyl)-2,7-dimethyl-2H-benzo[b][1,4]oxazin-3(4H)-one] | 2 nM | 1.4 |
| CC1Oc2cc(F)c(CN3CC=C(c4ccc(Cl)cc4)CC3)cc2NC1=O (centres unmarked) [Compound 331, 6-((4-(4-Chlorophenyl)-5,6-dihydropyridin-1(2H)-yl)methyl)-7-fluoro-2-methyl-2H-benzo[b][1,4]oxazin-3(4H)-one] | > 200 nM | 1.3 |
| CNC(=O)c1ccc(N2CCN(Cc3cc4c(cc3F)OC(C)C(=O)N4)CC2)cc1 (centres unmarked) [Compound 335, 4-(4-((7-Fluoro-2-methyl-3-oxo-3,4-dihydro-2H-benzo[b][1,4]oxazin-6-yl)methyl)piperazin-1-yl)-N-methylbenzamide] | 63.1 nM | 0.3 |
| CCNC(=O)c1ccc(N2CCN(Cc3cc4c(cc3F)OC(C)C(=O)N4)CC2)cc1 (centres unmarked) [Compound 336, N-Ethyl-4-(4-((7-fluoro-2-methyl-3-oxo-3,4-dihydro-2H-benzo[b][1,4]oxazin-6-yl)methyl)piperazin-1-yl)benzamide] | 100 nM | 2.1 |
| CC1Oc2cc(F)c(CN3CCN(c4ccc(C#N)cn4)CC3)cc2NC1=O (centres unmarked) [Compound 340, 6-(4-((7-Fluoro-2-methyl-3-oxo-3,4-dihydro-2H-benzo[b][1,4]oxazin-6-yl)methyl)piperazin-1-yl)nicotinonitrile] | 63.1 nM | 0.9 |
| CC1Oc2ccc(Cn3cc4ccccc4n3)cc2NC1=O (centres unmarked) [Compound 344, 6-((2H-Indazol-2-yl)methyl)-2-methyl-2H-benzo[b][1,4]oxazin-3(4H)-one] | > 200 nM | 1.3 |
| CNC(=O)c1ccc(N2CCN(Cc3cc4c(c(C5CC5)c3)OC(C)C(=O)N4)CC2)cc1 (centres unmarked) [Compound 347, 4-(4-((8-Cyclopropyl-2-methyl-3-oxo-3,4-dihydro-2H-benzo[b][1,4]oxazin-6-yl)methyl)piperazin-1-yl)-N-methylbenzamide] | 100 nM | 10.1 |
| CC1Oc2c(cc(CN3CCN(c4ccc(C(=O)NC5CC5)cc4)CC3)cc2C2CC2)NC1=O (centres unmarked) [Compound 348, N-Cyclopropyl-4-(4-((8-cyclopropyl-2-methyl-3-oxo-3,4-dihydro-2H-benzo[b][1,4]oxazin-6-yl)methyl)piperazin-1-yl)benzamide] | 251 nM | >5 |
| CNC(=O)c1ccc(N2CCN(Cc3cc(Cc4ccccc4)c4c(c3)NC(=O)C(C)O4)CC2)cc1 (centres unmarked) [Compound 353, 4-(4-((8-Benzyl-2-methyl-3-oxo-3,4-dihydro-2H-benzo[b][1,4]oxazin-6-yl)methyl)piperazin-1-yl)-N-methylbenzamide] | > 200 nM | 1.3 |
| CC1Oc2c(Cc3ccccc3)cc(CN3CCN(c4ccc(C(=O)NC5CC5)cc4)CC3)cc2NC1=O (centres unmarked) [Compound 354, 4-(4-((8-Benzyl-2-methyl-3-oxo-3,4-dihydro-2H-benzo[b][1,4]oxazin-6-yl)methyl)piperazin-1-yl)-N-cyclopropylbenzamide] | > 200 nM | 1.0 |
| CCNC(=O)c1ccc(N2CCN(Cc3cc(Cc4ccccc4)c4c(c3)NC(=O)C(C)O4)CC2)cc1 (centres unmarked) [Compound 355, 4-(4-((8-Benzyl-2-methyl-3-oxo-3,4-dihydro-2H-benzo[b][1,4]oxazin-6-yl)methyl)piperazin-1-yl)-N-ethylbenzamide] | > 200 nM | 1.3 |
| CCCc1cc(CN2CCN(c3ccc(C(=O)NC)cc3)CC2)cc2c1OC(C)C(=O)N2 (centres unmarked) [Compound 358, N-Methyl-4-(4-((2-methyl-3-oxo-8-propyl-3,4-dihydro-2H-benzo[b][1,4]oxazin-6-yl)methyl)piperazin-1-yl)benzamide] | > 200 nM | >3.0 |
| CCNC(=O)c1ccc(N2CCN(Cc3cc4c(c(OC)c3)OC(C)C(=O)N4)CC2)c(Cl)c1 (centres unmarked) [Compound 361, 3-Chloro-N-ethyl-4-(4-((8-methoxy-2-methyl-3-oxo-3,4-dihydro-2H-benzo[b][1,4]oxazin-6-yl)methyl)piperazin-1-yl)benzamide] | 25.1 nM | >3500 |
| CNC(=O)c1ccc(N2CCN(Cc3cc4c(c(OC)c3)OC(C)C(=O)N4)CC2)c(C)c1 (centres unmarked) [Compound 362, 4-(4-((8-Methoxy-2-methyl-3-oxo-3,4-dihydro-2H-benzo[b][1,4]oxazin-6-yl)methyl)piperazin-1-yl)-N,3-dimethylbenzamide] | 31.6 nM | >1700 |
| CNC(=O)c1ccc(N2CCN(Cc3cc4c(c(OC)c3)OC(C)C(=O)N4)CC2)c(F)c1 (centres unmarked) [Compound 365, 3-Fluoro-4-(4-((8-methoxy-2-methyl-3-oxo-3,4-dihydro-2H-benzo[b][1,4]oxazin-6-yl)methyl)piperazin-1-yl)-N-methylbenzamide] | 31.6 nM | 1.3 |
| CCNC(=O)c1ccc(N2CCN(Cc3ccc4c(c3)NC(=O)CO4)CC2)c(Cl)c1 [Compound 367, 3-Chloro-N-ethyl-4-(4-((3-oxo-3,4-dihydro-2H-benzo[b][1,4]oxazin-6-yl)methyl)piperazin-1-yl)benzamide] | > 200 nM | 2.5 |

More lines, main results first:

| IC50 [1] | SMILES | PF50 [2] |
| --- | --- | --- |
| 79.4 nM | CC1Oc2cc(F)c(CN3CCN(c4ccc(C(=O)NC5CC5)cc4)CC3)cc2NC1=O (centres unmarked) [Compound 338, N-Cyclopropyl-4-(4-((7-fluoro-2-methyl-3-oxo-3,4-dihydro-2H-benzo[b][1,4]oxazin-6-yl)methyl)piperazin-1-yl)benzamide] | 0.4 |
| 79.4 nM | CC1Oc2cc(F)c(CN3CCN(c4ccc(C#N)cc4)CC3)cc2NC1=O (centres unmarked) [Compound 339, 4-(4-((7-Fluoro-2-methyl-3-oxo-3,4-dihydro-2H-benzo[b][1,4]oxazin-6-yl)methyl)piperazin-1-yl)benzonitrile] | 1.0 |
| 79.4 nM | CC1Oc2ccc(Cn3ncc4ccccc43)cc2NC1=O (centres unmarked) [Compound 345, 6-((1H-Indazol-1-yl)methyl)-2-methyl-2H-benzo[b][1,4]oxazin-3(4H)-one] | 1.2 |
| 100 nM | CCNC(=O)c1ccc(N2CCN(Cc3cc4c(c(C5CC5)c3)OC(C)C(=O)N4)CC2)cc1 (centres unmarked) [Compound 346, 4-(4-((8-Cyclopropyl-2-methyl-3-oxo-3,4-dihydro-2H-benzo[b][1,4]oxazin-6-yl)methyl)piperazin-1-yl)-N-ethylbenzamide] | 8.6 |
| > 200 nM | CNC(=O)c1ccc(N2CCN(Cc3cc4c(c(-c5ccccc5)c3)OC(C)C(=O)N4)CC2)cc1 (centres unmarked) [Compound 350, N-Methyl-4-(4-((2-methyl-3-oxo-8-phenyl-3,4-dihydro-2H-benzo[b][1,4]oxazin-6-yl)methyl)piperazin-1-yl)benzamide] | 2.1 |
| > 200 nM | CC1Oc2c(cc(CN3CCN(c4ccc(C(=O)NC5CC5)cc4)CC3)cc2-c2ccccc2)NC1=O (centres unmarked) [Compound 351, N-Cyclopropyl-4-(4-((2-methyl-3-oxo-8-phenyl-3,4-dihydro-2H-benzo[b][1,4]oxazin-6-yl)methyl)piperazin-1-yl)benzamide] | 1.0 |
| 79.4 nM | CC1Oc2c(cc(CN3CCN(c4ccc(C#N)cc4)CC3)cc2C2CC2)NC1=O (centres unmarked) [Compound 352, 4-(4-((8-Cyclopropyl-2-methyl-3-oxo-3,4-dihydro-2H-benzo[b][1,4]oxazin-6-yl)methyl)piperazin-1-yl)benzonitrile] | 6.3 |
| 15.8 nM | CCNC(=O)c1ccc(N2CCN(Cc3cc(O)c4c(c3)NC(=O)C(C)O4)CC2)cc1 (centres unmarked) [Compound 359, N-Ethyl-4-(4-((8-hydroxy-2-methyl-3-oxo-3,4-dihydro-2H-benzo[b][1,4]oxazin-6-yl)methyl)piperazin-1-yl)benzamide] | >6.0 |
| 39.8 nM | CCNC(=O)c1ccc(N2CCN(Cc3cc4c(c(OC)c3)OC(C)C(=O)N4)CC2)c(F)c1 (centres unmarked) [Compound 360, N-Ethyl-3-fluoro-4-(4-((8-methoxy-2-methyl-3-oxo-3,4-dihydro-2H-benzo[b][1,4]oxazin-6-yl)methyl)piperazin-1-yl)benzamide] | 3.1 |
| 31.6 nM | CCNC(=O)c1ccc(N2CCN(Cc3cc4c(c(OC)c3)OC(C)C(=O)N4)CC2)c(C)c1 (centres unmarked) [Compound 363, N-ethyl-4-(4-((8-methoxy-2-methyl-3-oxo-3,4-dihydro-2H-benzo[b][1,4]oxazin-6-yl)methyl)piperazin-1-yl)-3-methylbenzamide] | 6522 |
| 25.1 nM | CNC(=O)c1ccc(N2CCN(Cc3cc4c(c(OC)c3)OC(C)C(=O)N4)CC2)c(Cl)c1 (centres unmarked) [Compound 366, 3-Chloro-4-(4-((8-methoxy-2-methyl-3-oxo-3,4-dihydro-2H-benzo[b][1,4]oxazin-6-yl)methyl)piperazin-1-yl)-N-methylbenzamide] | 4.6 |
